In brackets after ≈: the same amount, converted by molar mass. Several values for one entry are separate records, joined by “and”; a condition that tells them apart may be missing. Equal entries are not always repeated. Where two headings read alike, the source gives them in different places. *1 amine or outer side, *2 acyl side, *3 side chain or, on linkers, in order; H or OH if unused. Where a SMILES comes first, the peptide text is derived from it. [ ]: non-standard residue; d: D form. X1 = C#CCn1cc(C[C@H](N[*:1])C(=O)[*:2])c2ccccc21; NMeLeu(5-OH,4R) = CN[C@@H](C[C@@H](C)CO)C(=O)O; Phe(βR-OMe) = CO[C@H](c1ccccc1)[C@H](N)C(=O)O; NMeL = CN[C@@H](CC(C)C)C(=O)O
Key:
Mtb (moxR) FNDR-M1 = test: microbe, parasite or virus in culture; format: cell-based
Pseudomonas aeruginosa = test: MIC ESKAPES panel, Pseudomonas aeruginosa; format: cell-based
Description: (§1) Minimum inhibitory concentration (MIC) against ESKAPES panel of Gram positive and Gram negative pathogens (Enterococcus faecium, Staphylococcus aureus, Klebsiella pneumoniae, Acinetobacter baumannii, Pseudomonas aeruginosa, Enterobacter cloacae and Salmonella typhimurium [ESKAPES panel]) were determined at the FNDR by the standard broth dilution method [CLSI, M100]. […] Mueller Hinton broth (MHB) medium was used to grow ESKAPES panel strains. The individual cultures were added as 200 μL (inoculum of 3–7 × 10^5 cfu/ml) to the respective assay plates in each well to all columns, except the media control (200 μL of medium). […] The assay plates were incubated at 37 °C, and the results were noted on the 2nd day as turbidometric readout. The clear wells indicated inhibition of growth, while the turbid wells indicated uninhibited growth.

Klebsiella pneumoniae = test: MIC ESKAPES panel, Klebsiella pneumoniae; format: cell-based
Description: as §1

Msm 700084 = test: microbe, parasite or virus in culture; format: cell-based
[1] = system: replicating Mtb H37Rv cells; test: Resazurin growth assay, replicating Mtb H37Rv (Supplementary Fig. 2); format: cell-based, Mycobacterium tuberculosis; details: three replicate columns
[2] = biological target: endogenous ClpC1 in Msm #607 cells (Mycolicibacterium smegmatis, UniProt A0R574); format: cell-based, M. smegmatis
Sequence of endogenous ClpC1 in Msm #607 cells (A0R574 whole entry): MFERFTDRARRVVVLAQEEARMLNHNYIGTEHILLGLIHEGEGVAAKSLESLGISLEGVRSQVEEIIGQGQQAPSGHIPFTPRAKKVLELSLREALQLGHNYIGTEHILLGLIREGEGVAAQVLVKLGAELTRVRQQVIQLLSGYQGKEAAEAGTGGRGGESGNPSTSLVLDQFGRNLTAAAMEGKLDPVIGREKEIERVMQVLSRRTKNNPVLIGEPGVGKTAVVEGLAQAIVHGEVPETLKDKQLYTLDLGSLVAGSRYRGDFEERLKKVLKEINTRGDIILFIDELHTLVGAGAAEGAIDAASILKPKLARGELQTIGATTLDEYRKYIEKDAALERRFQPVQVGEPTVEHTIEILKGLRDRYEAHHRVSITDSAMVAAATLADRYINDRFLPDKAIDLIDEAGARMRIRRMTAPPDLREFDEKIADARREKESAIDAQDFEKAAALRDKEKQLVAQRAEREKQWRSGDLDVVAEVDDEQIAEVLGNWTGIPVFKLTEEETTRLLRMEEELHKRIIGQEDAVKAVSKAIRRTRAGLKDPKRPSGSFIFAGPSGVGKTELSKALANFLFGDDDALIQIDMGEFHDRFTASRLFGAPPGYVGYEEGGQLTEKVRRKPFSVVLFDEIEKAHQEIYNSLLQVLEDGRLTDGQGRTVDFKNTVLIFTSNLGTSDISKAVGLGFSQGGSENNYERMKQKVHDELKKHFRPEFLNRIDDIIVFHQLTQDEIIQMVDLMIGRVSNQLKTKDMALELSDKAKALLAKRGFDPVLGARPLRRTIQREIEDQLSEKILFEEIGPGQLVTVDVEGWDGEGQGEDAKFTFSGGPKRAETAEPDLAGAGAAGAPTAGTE

Mtb # 11291 = test: microbe, parasite or virus in culture; format: cell-based; details: single well replicates
[3] = biological target: ClpC1-NTD substrate, M. tuberculosis ClpC1P1P2 (Mycobacterium tuberculosis, UniProt P9WPC9); test: biochemical; format: biochemical; details: Mtb
Sequence of ClpC1-NTD substrate, M. tuberculosis ClpC1P1P2 (P9WPC5 whole entry): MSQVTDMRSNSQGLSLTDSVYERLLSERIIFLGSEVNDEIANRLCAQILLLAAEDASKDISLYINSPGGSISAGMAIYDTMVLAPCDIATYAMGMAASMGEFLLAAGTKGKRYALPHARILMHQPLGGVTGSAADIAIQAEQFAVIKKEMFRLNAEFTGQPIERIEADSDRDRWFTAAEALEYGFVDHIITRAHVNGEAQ
Sequence of ClpC1-NTD substrate, M. tuberculosis ClpC1P1P2 (P9WPC9 whole entry): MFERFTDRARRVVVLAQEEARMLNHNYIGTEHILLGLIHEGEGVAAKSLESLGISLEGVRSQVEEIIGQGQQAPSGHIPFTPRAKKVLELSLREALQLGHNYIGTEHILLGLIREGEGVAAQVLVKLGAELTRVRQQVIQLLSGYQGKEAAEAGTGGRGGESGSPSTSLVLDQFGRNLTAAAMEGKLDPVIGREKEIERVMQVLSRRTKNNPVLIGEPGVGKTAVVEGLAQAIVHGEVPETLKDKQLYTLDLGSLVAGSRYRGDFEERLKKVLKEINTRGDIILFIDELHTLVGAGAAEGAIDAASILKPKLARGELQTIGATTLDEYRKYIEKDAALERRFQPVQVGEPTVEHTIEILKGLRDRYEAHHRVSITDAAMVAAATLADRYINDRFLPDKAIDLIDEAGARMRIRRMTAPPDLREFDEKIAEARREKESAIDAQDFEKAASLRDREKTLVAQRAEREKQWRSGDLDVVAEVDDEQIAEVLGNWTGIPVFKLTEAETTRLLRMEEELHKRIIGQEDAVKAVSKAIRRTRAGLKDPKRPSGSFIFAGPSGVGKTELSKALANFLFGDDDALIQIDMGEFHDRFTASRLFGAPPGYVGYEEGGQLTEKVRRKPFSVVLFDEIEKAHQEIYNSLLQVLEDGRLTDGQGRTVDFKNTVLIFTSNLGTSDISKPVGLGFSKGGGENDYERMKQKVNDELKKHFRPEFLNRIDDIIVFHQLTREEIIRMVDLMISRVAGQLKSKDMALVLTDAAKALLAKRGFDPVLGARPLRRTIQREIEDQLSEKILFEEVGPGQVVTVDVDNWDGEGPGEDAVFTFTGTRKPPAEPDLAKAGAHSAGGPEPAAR
Sequence of ClpC1-NTD substrate, M. tuberculosis ClpC1P1P2 (P9WPC3 whole entry, further chain): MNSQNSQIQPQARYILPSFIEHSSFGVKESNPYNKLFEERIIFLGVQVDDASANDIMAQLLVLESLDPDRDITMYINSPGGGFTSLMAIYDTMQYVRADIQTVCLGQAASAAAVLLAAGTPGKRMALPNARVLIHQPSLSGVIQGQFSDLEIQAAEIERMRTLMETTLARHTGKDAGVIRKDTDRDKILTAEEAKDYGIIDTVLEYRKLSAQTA

Mtb H37Rv = test: Minimum bactericidal concentration (MBC), Mtb H37Rv; format: cell-based, Mycobacterium tuberculosis; details: Mycobacterium tuberculosis, H37RV
[4] = biological target: His6-tagged ClpC1-NTD substrate, M. smegmatis ClpC1P1P2 (UniProt A0R574+P9WPC9); test: biochemical; format: biochemical; details: for DC50: Msm; for % Response / ClpC1-NTD peak area: Figure 4a source data, well replicates
Sequence of His6-tagged ClpC1-NTD substrate, M. smegmatis ClpC1P1P2 (P9WPC9 1-156, looked up, natural form): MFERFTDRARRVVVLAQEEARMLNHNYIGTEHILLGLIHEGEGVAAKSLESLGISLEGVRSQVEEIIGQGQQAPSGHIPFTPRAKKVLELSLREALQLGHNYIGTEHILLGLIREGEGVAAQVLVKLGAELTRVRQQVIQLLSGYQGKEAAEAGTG
Sequence of His6-tagged ClpC1-NTD substrate, M. smegmatis ClpC1P1P2 (A0R574 whole entry): as the sequence (A0R574 whole entry) above

Caco-2 monolayers = test: in vitro; details: human, Caco-2
How it was run: (§2)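 Permeability across Caco-2 monolayers was measured in both directions, apical-to-basolateral and basolateral-to-apical, in 10^-6 cm s-1. Efflux ratio = P(B−A)/P(A−B). Intrinsic permeability is the mean of P(A−B) and P(B−A).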

in vitro = details: human
How it was run: as §2

[5] = format: in vitro ADME, Mice
How it was run: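 Clearance values are expressed as % of liver blood flow, derived from first-order half-lives using the well-stirred liver model. Depletion of 1 µmol/l compound is followed by HPLC-MS/MS in NADPH-supplemented microsomes (0.5 mg/ml) at 37 °C, pH 7.5.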

Enterobacter cloacae = test: MIC ESKAPES panel, Enterobacter cloacae; format: cell-based
Description: as §1

Staphylococcus aureus = test: MIC ESKAPES panel, Staphylococcus aureus; format: cell-based
Description: as §1

[6] = Gram-Negative Bacteria, replicates 1-3
[7] = mean of the measurements, read-out: DC50, Mean

In the case of `C#CCn1cc(C[C@@H]2NC(=O)[C@H](C(C)C)NC(=O)[C@H](CC(C)C)N(C)C(=O)[C@H](C(C)C)NC(=O)[C@H]([C@H](OC)c3ccccc3)NC(=O)[C@H](C)NC(=O)[C@H](C[C@@H](C)CO)N(C)C2=O)c2ccccc21` [Compound 5] (cyclo(A[Phe(βR-OMe)]V[NMeL]V[X1][NMeLeu(5-OH,4R)])), the MIC (Mtb (moxR) FNDR-M1; M. tuberculosis FNDR-M1, single well replicates) is reported as 0.391 µM and 0.781 µM, the MIC (Mtb (moxR) FNDR-M1; Mycobacterium tuberculosis, M. tuberculosis FNDR-M1, single well replicates) is reported as 0.781 µM (≈ 0.735 µg/mL) and the MIC (Mtb (moxR) FNDR-M1; Mycobacterium tuberculosis, Mtb (moxR) FNDR-M1, mean ± SD, n = 3 well replicates) is reported as 0.7 ± 0.2 µM (≈ 0.659 µg/mL). For the same molecule, the MIC (Pseudomonas aeruginosa; [6]) was over 50 µM, the MIC (Pseudomonas aeruginosa; Pseudomonas aeruginosa, Gram negative, n = 3 well replicates) was over 50 µM and the MIC (Pseudomonas aeruginosa; Pseudomonas aeruginosa, Gram-Negative Bacteria, replicates 1-3) was over 47 µg/mL. It also gave an MIC (Klebsiella pneumoniae; [6]) of over 50 µM, an MIC (Klebsiella pneumoniae; Klebsiella pneumoniae, Gram negative, n = 3 well replicates) of over 50 µM and an MIC (Klebsiella pneumoniae; Klebsiella pneumoniae, Gram-Negative Bacteria, replicates 1-3) of over 47 µg/mL. The MIC (Msm 700084; Mycolicibacterium smegmatis, 700084, single determinations, read-out: Msm 700084 MIC) was 6.25 µM (≈ 5.88 µg/mL), the MIC (Msm 700084; Mycolicibacterium smegmatis, 700084, read-out: MIC Msm 700084) was 6.3 µM (≈ 5.93 µg/mL) and the “Supplementary Figure 2 dose-response value, replicating H37Rv cells” value ([1]; Conc. 0.0488281 µM) was 98.0652 and 83.9808 and 80.51. The “Supplementary Figure 2 dose-response value, replicating H37Rv cells” value ([1]; Conc. 0.0976562 µM) was 93.0506 and 83.7138 and 106.369, the “Supplementary Figure 2 dose-response value, replicating H37Rv cells” value ([1]; Conc. 0.195312 µM) was 80.9008 and 79.6239 and 83.1102 and the “Supplementary Figure 2 dose-response value, replicating H37Rv cells” value ([1]; Conc. 0.390625 µM) was 100.805 and 94.8498 and 103.432. The “Supplementary Figure 2 dose-response value, replicating H37Rv cells” value ([1]; Conc. 0.78125 µM) was 90.0247 and 88.21 and 77.7086, the “Supplementary Figure 2 dose-response value, replicating H37Rv cells” value ([1]; Conc. 1.5625 µM) was 89.1967 and 85.691 and 102.875 and the “Supplementary Figure 2 dose-response value, replicating H37Rv cells” value ([1]; Conc. 3.125 µM) was 81.2645 and 83.4662 and 77.6892. The “Supplementary Figure 2 dose-response value, replicating H37Rv cells” value ([1]; Conc. 6.25 µM) was 79.2563 and 81.2993 and 97.3301, the “Supplementary Figure 2 dose-response value, replicating H37Rv cells” value ([1]; Conc. 25 µM) was 23.3248 and 18.2173 and 22.7212 and the “Supplementary Figure 2 dose-response value, replicating H37Rv cells” value ([1]; Conc. 50 µM) was 9.562 and 6.199 and 9.0701. The “Supplementary Figure 2 dose-response value, replicating H37Rv cells” value ([1]; Conc. 100 µM) was 10.3547 and 8.316 and 5.8624, the ClpC1 peak area ([2]; 100 µM, Figure 5c, well replicates of 3 experiments) was 296040 and 308121 and 346162 and 550976 and 476988 and 428795 and 417149 and 443522 and 406576 and the “intracellular degradation of ClpC1” value ([2]; Msm #607, 24 h, result in words) was “did not induce degradation of ClpC1”. For the same molecule, the “MIC Mtb # 11291” value (Mtb # 11291) was 0.18 µg/mL (≈ 0.191 µM), the MIC (Mtb # 11291; read-out: MIC Mtb # 11291) was 0.19 µM (≈ 0.179 µg/mL) and the DC50 ([3]; Measurement 1-4, read-out: DC50, single measurements) was over 100 µM. For the same molecule, the DC50 [3, 7] was over 100 µM, the MBC (Mtb H37Rv; read-out: MBC (from Set 3) Mtb H37Rv) was 6.25 µM and 5.88 µg/mL and the MBC (Mtb H37Rv; individual example, read-out: MBC Mtb H37Rv) was 6.3 µM and 5.9 µg/mL. The DC50 ([4]; Measurement 1-6, read-out: DC50, single measurements) was over 100 µM, the DC50 [4, 7] was over 100 µM and the “degradation of the His6-tagged ClpC1-NTD substrate” value ([4]; cell-free, result in words) was “did not cause any degradation”. The “% Response” value ([4]; conc. 0.4 µM) was 116.842% and 113.028% and 105.03% and 119.052% and 111.716% and 114.137% and 123.793% and 118.108% and 117.25%, the ClpC1-NTD peak area ([4]; conc. 0.4 µM) was 640826 and 655003 and 1857813 and 1613203 and 1512289 and 674239 and 595770 and 768891 and 644662 and the “% Response” value ([4]; conc. 33.3 µM) was 90.9541% and 97.3128% and 94.2061% and 106.414% and 99.6024% and 104.896% and 117.254% and 102.794% and 105.872%. For the same molecule, the ClpC1-NTD peak area ([4]; conc. 33.3 µM) was 584244 and 637952 and 1853168 and 1510772 and 1477984 and 564418 and 575020 and 543552 and 642219, the “% Response” value ([4]; conc. 100.0 µM) was 105.654% and 87.8451% and 96.6012% and 102.875% and 103.779% and 107.689% and 115.982% and 114.344% and 115.781% and the ClpC1-NTD peak area ([4]; conc. 100.0 µM) was 756908 and 694227 and 2586172 and 1761383 and 2099655 and 509578 and 446745 and 481433 and 842128. For the same molecule, the “Caco-2 Int. Perm” value (Caco-2 monolayers) was 12.1, the “Influence of N-methylation on permeability” value (Caco-2 monolayers) was 9.3 and the efflux ratio (in vitro; Caco-2) was 20.4. For the same molecule, the Papp A→B (in vitro; Caco-2, CACO permeability PEAB) was 0.95 ×10⁻⁶ cm/s, the Papp B→A (in vitro; Caco-2, CACO permeability PEBA) was 19 ×10⁻⁶ cm/s and the Papp A→B (in vitro; Caco-2, Caco-2 permeability P (A-B)) was 1.1 ×10⁻⁶ cm/s. For the same molecule, the Papp B→A (in vitro; Caco-2, Caco-2 permeability P (B-A)) was 23 ×10⁻⁶ cm/s, the “Microsomal Stability Mouse QH” value ([5]; Mouse) was over 88.400% and the “Microsomal Stability Mice” value ([5]; clearance in microsomes) was over 88 %Qh. For the same molecule, the MIC (Enterobacter cloacae; Enterobacter cloacae, Gram negative, n = 3 well replicates) was over 50 µM, the MIC (Enterobacter cloacae; Enterobacter cloacae, Gram-Negative Bacteria, replicates 1-3) was over 47 µg/mL and the MIC (Enterobacter cloacae; [6]) was over 50 µM. The MIC (Staphylococcus aureus; Gram-Positive Bacteria, replicates 1-3) was over 50 µM, the MIC (Staphylococcus aureus; Staphylococcus aureus, Gram positive, n = 3 well replicates) was over 50 µM and the MIC (Staphylococcus aureus; Staphylococcus aureus, Gram-Positive Bacteria, replicates 1-3) was over 47 µg/mL.

From paper PMC10914731, “Homo-BacPROTAC-induced degradation of ClpC1 as a strategy against drug-resistant mycobacteria” (Nature Communications, 2024)
